Reference: US9844535B2, “SHP2 inhibitors and methods of treating autoimmune and/or glomerulonephritis-associated diseases using SHP2 inhibitors” (Indiana University Research and Technology Corporation, priority 2013, dated 2017)
“Also recorded” adds a separate entry of the source.

Key:
[1] = target: SHP2 (Mus musculus (Mouse), UniProt P35235); assay: Immune complex PTP assay on tissue lysates of inhibitor-treated MRL/lpr mice; format: in vivo; details: 7.5 mg/kg daily for 4 weeks, listed as SHP2 inhibitor
SHP2, sequence (P35235 whole entry): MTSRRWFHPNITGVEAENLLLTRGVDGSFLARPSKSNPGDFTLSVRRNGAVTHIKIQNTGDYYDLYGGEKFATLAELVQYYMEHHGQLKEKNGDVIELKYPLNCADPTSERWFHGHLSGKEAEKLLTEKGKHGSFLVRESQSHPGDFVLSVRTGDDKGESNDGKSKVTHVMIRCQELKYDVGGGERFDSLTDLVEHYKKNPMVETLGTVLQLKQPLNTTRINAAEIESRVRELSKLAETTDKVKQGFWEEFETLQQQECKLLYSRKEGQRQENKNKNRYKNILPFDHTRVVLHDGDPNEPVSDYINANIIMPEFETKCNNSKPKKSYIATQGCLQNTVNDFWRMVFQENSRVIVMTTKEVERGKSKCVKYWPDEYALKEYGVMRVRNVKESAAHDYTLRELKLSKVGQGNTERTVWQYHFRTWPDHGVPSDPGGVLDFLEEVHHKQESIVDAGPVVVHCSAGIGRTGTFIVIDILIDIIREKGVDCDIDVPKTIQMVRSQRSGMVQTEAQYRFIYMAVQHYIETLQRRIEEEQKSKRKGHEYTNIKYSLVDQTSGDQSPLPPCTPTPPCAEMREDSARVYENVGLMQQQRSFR
Method: Briefly, female MRL/MpJ-fas lpr (MRL/lpr), MRL/Mpj and C57BL/6J mice were purchased from the Jackson Laboratory (Bar Harbor, Me.). For experiments, mice within each group were ip injected with either vehicle (DMSO) or the SHP2 inhibitor (7.5 mg/kg/per day). […] Body weight was measured daily and treatment dosage was adjusted accordingly. At the end of the treatment period, mice were sacrificed with CO2 exsanguination and SLE targeted organs were removed. For each mouse, spleen, kidney, and heart weight were calculated. In addition, total animal body weight and tibia length were measured. Peripheral blood/serum was also collected for use in the cytokine assays described below.
PTP assays were conducted as previously described in Kontaridis et al., J Biol Chem. 2006; 281:6785-6792, using para-nitrophenyl phosphate (pNPP, obtained from Sigma) as substrate. […] Reactions were terminated with 0.2 N NaOH and phosphate release was determined by measuring A410. […]

[2] = tested on: MRL/lpr mice; assay: Longevity study; format: in vivo, mouse; details: SLE-prone MRL/lpr mice, 7.5 mg/kg/day ip from 11 weeks of age; listed as SHP2 inhibitor
Method: Female MRL/lpr mice were used for a survival/longevity curve analysis. Mice either ip injected with vehicle (DMSO) or SHP2 inhibitor (7.5 mg/kg/each day) were followed beginning at 11 weeks of age to assess tolerance to the inhibitor and longevity/survival curve. The testing was terminated when the last mouse in the control group died, at 26 weeks.

[3] = tested on: T cells isolated from the spleen of SLE-prone mice; assay: Proliferation and viability of cultured mouse T cells; format: cell-based
Method: Whole tissue cell cultures prepared from mouse spleen and axillary lymph nodes were generated as described above. From within this total cell preparation, total T cells from spleen and the double negative T cells from axillary lymph nodes were further purified through negative selection using a pan T cell isolation kit from Milenyi Biotec (San Diego, Calif.). […] Next, 20 μl of anti-biotin beads were added per 1×10^7 cells and the reaction was kept on ice for another 30 minutes. After centrifuging at 2000 rpm for 5 minutes at 4° C., the pellet was resuspended in 2 ml of T cell isolation buffer (D-PBS, pH7.2, 0.5% FBS and 2 mM EDTA) and the T cells were purified through a magnetic sorting column (MACS).
The purity of isolated T cells routinely exceeded 94%. After purification, T cells were resuspended in RPMI1640 medium with 10% FBS and 1×10^5 cells/well in 100 ul total volume was loaded onto a 96-well plate, either left uncoated or precoated with anti-CD3 antibody (1 ug/ml) (OKT3; Biolegend). All cells loaded onto wells precoated with anti-CD3 antibody were also mixed with anti-CD28 antibody (0.5 μg/ml) (CD28.2; BioLegend) to help potentiate the T cell signaling response. Plated cells were cultured for 48 hours in either the presence of vehicle (DMSO) or Shp2 inhibitor (10 μg/ml). Following the incubation, 15 μl of medium was collected for various cytokine activity analyses.
For cell viability, an MTT (thiazolyl Blue tetrazolium Bromide, M2128, Sigma, St. Louis, Mo.) assay was employed. Briefly, 10 μl of the MTT labeling reagent (final concentration 0.5 mg/ml) was loaded into each cell culture well (96-well plate) and then incubated for 4 hours in a humidified chamber. Following incubation, 100 μl of solubilization solution (0.04N in absolute isopropanol) was added to each well, resuspended, and then incubated at 37° C. for an additional hour. Spectrophotometric absorbance of the samples was assessed using a microplate reader at a wavelength of 595 nm. T cell numbers/proliferation was assessed by cell count using a hemocytometer. In brief, 1×10^5 cells were plated in wells and cultured for 48 hours. 10 μl of cell suspension was then removed and mixed together with 10 μl of trypan blue solution (0.4%, T8154, Sigma). After mixing, 10 μl of the mixture was loaded onto the hemocytometer and the total average number of cells/well was calculated.
Moreover, the proliferative effects observed were specific to the double-negative T cell population (FIG. 20A).

SMILES: Cn1c(-c2cccc(NC(=O)C(=O)Nc3ccc(-c4ccsc4)cc3)c2)c(I)c2cc(C(=O)O)c(O)cc21 [11a-1]
- SHP2 activity in tissue lysates [1]: normalized SHP2 activity back to levels of WT; also recorded: normalize SHP2 activity
- lifespan / survival (Kaplan-Meier) [2]: significantly increased lifespan; also recorded: increased longevity/survival effect
- total number / proliferation of double-negative T cells ([3]; MRL/lpr, CD3 activation, 48 hours culture, listed as SHP2 inhibitor): decreased the total number of double-negative T cells; also recorded: decreases proliferation
- viability of tissue-cultured double-negative T cells ([3]; MTT, absence or presence of CD3 ab, listed as SHP2 inhibitor): did not affect viability; also recorded: does not affect viability
- total T cell viability ([3]; MTT, absence or presence of CD3 antibody): no effect on total T cell viability
- inactive and CD3 activated T cell proliferation ([3]; SLE mouse splenic T cells, 48 hours culture): significantly inhibited
- effects in WT or MRL/MpJ control cells ([3]; presence or absence of stimulation): No effects were observed
